The values below come from PubChem BioAssay (NCI).

What all share (assay): NCI tumour cell line growth inhibition, 48 h
Experiment [1] concerns ACHN renal.
Experiment [2] has as its system BT-549 breast.
In experiment [3] the test system is CAKI-1 renal.
Experiment [4] relates to COLO 205 colon.
The test system of experiment [5] is HOP-92 NSCLC.
Experiment [6] concerns HT29 colon.
For experiment [7], the system named is K-562 leukemia.
Experiment [8] has as its system MDA-MB-231 breast.
Experiment [9] concerns MDA-MB-435.
The test system of experiment [10] is MDA-N.
Experiment [11] concerns NCI-H23 lung.
Experiment [12] concerns NCI-H522 lung.
The subject of experiment [13] is PC-3 prostate.
Experiment [14] has as its system SF-268 CNS.
In experiment [15] the test system is SK-MEL-28 melanoma.
Experiment [16] concerns SK-MEL-5 melanoma.
Experiment [17] concerns SW-620 colon.
Experiment [18] deals with TK-10 renal.
The subject of experiment [19] is UACC-62 melanoma.

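Protocol summary: plate cells (96-well), add compound at 5 concentrations, incubate 48 h, interpolate endpoints linearly. TGI: total growth inhibition.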 A value given as a limit tells only on which side of the number the result lay.

`C[C@]12CC[C@H](O)C=C1CC[C@@H]1[C@@H]2CC[C@]2(C)C(=N/O)/C(=C/c3ccncc3)C[C@@H]12`: the TGI is 23.8 µM in [1]; 81.5 µM in experiment [2]; above 100 µM in experiment [3]; 38.8 µM in experiment [4]; 31.6 µM in experiment [5]; 18.9 µM in experiment [6]. Besides, the TGI in experiment [7] is above 100 µM; in experiment [8], 23.9 µM; in experiment [9] it was 42.8 µM; in experiment [10], 44 µM; in experiment [11] it was 63.7 µM; in experiment [12], 33.3 µM. In addition, the TGI in experiment [13] is 14.6 µM; in experiment [14], 49.4 µM; in [15], 60.2 µM; in [16], 18 µM; in [17], above 100 µM; in experiment [18], 38.3 µM. Moreover, the TGI in [19] came to 19.3 µM.

As for `Cn1c(Sc2ccc(-c3cccnc3)n2C)ccc1-c1cccnc1`, the TGI in [1] is 44.9 µM; in experiment [2], 49.8 µM; in experiment [3] it was 36.5 µM; in experiment [4] it was 38 µM; in experiment [5], 28.1 µM; in experiment [6] it was 55.1 µM. Further, the TGI in [7] was 13.8 µM; in experiment [8] it was 37.1 µM; in experiment [9], 29.1 µM; in experiment [10], 25.3 µM; in experiment [11] it was 34.8 µM; in [12] it was 23.9 µM. For the same compound, the TGI in experiment [13] was found to be 31 µM; in experiment [14], 23.7 µM; in experiment [15] it was 26.9 µM; in [16], 30.4 µM; in experiment [17] it was 23.6 µM; in experiment [18], 32.4 µM. Besides, the TGI in [19] turned out to be 29.7 µM.

On to `Cn1c(=O)c2c(nc(N)n2C2OC(CO)C(O)C2O)n(C)c1=O` (configuration not stated), for which the TGI in [1], in [2], in [3], in experiment [4], in [5] and in experiment [6] was above 100 µM in each case. In addition, the TGI in experiment [7], in experiment [8], in [9], in experiment [10], in experiment [11] and in experiment [12] was above 100 µM in each case. The TGI in [13], in experiment [14], in experiment [15], in experiment [16], in experiment [17] and in [18] was above 100 µM throughout. Further, the TGI in [19] was above 100 µM.
